From US20110053913A1, “Methods and Therapies for Alleviating Pain” (priority 2009, published 2011)

How the values were obtained:
[1] = tested on: spinal alpha-2 receptors; assay: Inhibition of spinal clonidine analgesia by alpha-2 receptor antagonists (tail flick / paw pressure); type: in vivo, rat; settings: tail flick test, FIG. 12
Experimental: Experiments were conducted using adult male Sprague-Dawley rats (Charles River, St. Constant, QC, Canada) weighing between 200-250 grams. Animals were housed individually in standard laboratory cages, maintained on a 12-hour light/dark cycle, and provided with food and water ad libitum. The surgical placement of chronic indwelling intrathecal catheters (polyethylene PE 10 tubing, 7.5 cm) into the spinal subarachnoid space was made under 4% halothane anesthesia, using the method of Yaksh and Rudy Physiol. Behav. 1976 7:1032-1036). […]
The tail flick test (D'amour & Smith, J. Pharmacol. Exp. Ther. 1941 72:74-79) was used to measure the response to a thermal nociceptive stimulus. Radiant heat was applied to the distal third of the animal's tail and the response latency for tail withdrawal from the source was recorded using an analgesia meter (Owen et al., J. Pharmacol. Methods 1981 6:33-37)). […]
The paw pressure test (Loomis et al., Pharm. Biochem. 1987 26:131-139) was used to measure the response to a mechanical nociceptive stimulus. Pressure was applied to the dorsal surface of the hind paw using an inverted air-filled syringe connected to a gauge and the value at which the animal withdrew its paw was recorded. […]

[2] = tested on: rats; assay: Potentiation of morphine analgesia and acute morphine tolerance, tail flick and paw pressure tests; type: in vivo, rat
Experimental: (§1) Experiments were conducted using adult male Sprague-Dawley rats (Charles River, St. Constant, QC, Canada) weighing between 200-250 grams. Animals were housed individually in standard laboratory cages, maintained on a 12-hour light/dark cycle, and provided with food and water ad libitum. The surgical placement of chronic indwelling intrathecal catheters (polyethylene PE 10 tubing, 7.5 cm) into the spinal subarachnoid space was made under 4% halothane anesthesia, using the method of Yaksh and Rudy Physiol. Behav. 1976 7:1032-1036). Specifically, the anesthetized animal was placed prone in a stereotaxic frame, a small incision made at the back of the neck, and the atlanto-occipital membrane overlying the cisterna magna was exposed and punctured with a blunt needle. The catheter was inserted through the cisternal opening and slowly advanced caudally to position its tip at the lumbar enlargement. The rostral end of the catheter was exteriorized at the top of the head and the wound closed with sutures. Animals were allowed 3-4 days recovery from surgery and only those free from neurological deficits, such as the hindlimb or forelimb paralysis or gross motor dysfunction, were included in the study. All drugs were injected intrathecally as solutions dissolved in physiological saline (0.9%) through the exteriorized portion of the catheter at a volume of 10 μl followed by a 10 μl volume of 0.9% saline to flush the catheter.
(§2) The tail flick test (D'amour & Smith, J. Pharmacol. Exp. Ther. 1941 72:74-79) was used to measure the response to a thermal nociceptive stimulus. Radiant heat was applied to the distal third of the animal's tail and the response latency for tail withdrawal from the source was recorded using an analgesia meter (Owen et al., J. Pharmacol. Methods 1981 6:33-37)). The stimulus intensity was adjusted to yield baseline response latencies between 2-3 seconds. To minimize tail damage, a cutoff of 10 seconds was used as an indicator of maximum antinociception.
(§3) The paw pressure test (Loomis et al., Pharm. Biochem. 1987 26:131-139) was used to measure the response to a mechanical nociceptive stimulus. Pressure was applied to the dorsal surface of the hind paw using an inverted air-filled syringe connected to a gauge and the value at which the animal withdrew its paw was recorded. A maximum cutoff pressure of 300 mmHg was used to avoid tissue damage. Previous experience has established that there is no significant interaction between the tail flick and paw pressure tests (Loomis et al., Can. J. Physiol. Pharmacol. 1985 63:656-662).
The effects of ultra-low doses of atipemazole, yohimbine, idazoxan and mirtazapine, as well as the selective alpha-2A receptor antagonist BRL 44408, were also tested for potentiation of acute analgesic action of spinal or subcutaneous morphine. Acute opioid tolerance was induced by three serial intrathecal morphine injections (15 μg) or systemic morphine injections (2.5 mg/kg sc). Rats were administered morphine alone, a combination of morphine (15 μg intrathecally or 2.5 mg/kg sc) and an ultra low dose of atipemazole, yohimbine, idazoxan, mirtazapine, or BRL 44408. Results for atipemazole are depicted in FIGS. 2A, 2B, 11A and 11B. Results for yohimbine are depicted in FIGS. 6A and 6B. Results for idazoxan are depicted in FIGS. 10A and 10B. Results for mirtazapine are depicted in FIGS. 8A and 8B. Results for BRL 44408 are depicted in FIGS. 14A and 14B.
For the in vivo studies, tail flick and paw pressure values were converted to a maximum percentage effect (M.P.E.): M.P.E.=100×[post-drug response−baseline response]/[maximum response−baseline response]. Data represented in the figures are expressed as mean (±S.E.M.). The ED50 values were determined using a non-linear regression analysis (Prism 2, GraphPad Software Inc., San Diego, Calif., USA). […]

[3] = tested on: rats; assay: Analgesic effect of ultra-low dose alpha-2 receptor antagonist administered alone, tail flick and paw pressure tests; type: in vivo, rat
Experimental: Baseline latencies were obtained every 5 minutes for 15 minutes prior to injection of either vehicle (saline 0.9%) or atipemazole and tested every 30 minutes for 3 hours. Data were converted to % maximum possible effect.
as §1, §2, §3
The analgesic effect of an ultra-low dose of an alpha-2 receptor antagonist administered alone was examined. Atipemazole was administered systemically, in three successive administrations, at 20 ng/kg or 200 ng/kg.
The analgesic effect of an ultra-low dose of an alpha-2A receptor antagonist administered alone was also examined. BRL 44408 was administered intrathecally, in a single administration, at 1.65 ng. In another study, three successive doses of BRL 44408 (1.65 ng) were administered intrathecally.
For the in vivo studies, tail flick and paw pressure values were converted to a maximum percentage effect (M.P.E.): M.P.E.=100×[post-drug response−baseline response]/[maximum response−baseline response]. Data represented in the figures are expressed as mean (±S.E.M.). The ED50 values were determined using a non-linear regression analysis (Prism 2, GraphPad Software Inc., San Diego, Calif., USA). Statistical significance (p<0.05, 0.01. or 0.001) was determined using a one-way analysis of variance followed by a Student Newman-Keuls post hoc test for multiple comparisons between groups.

[4] = tested on: rats; assay: Formalin test, persistent inflammatory pain model; type: in vivo, rat; settings: atipemazole alone sc 20 minutes prior to 1% formalin into hind paw; dark phase; N=4; FIGS. 15A, 15B
Experimental: In a further experiment, the analgesic effect of atipemazole was examined using the formalin test, a persistent inflammatory pain model. The experiment was conducted with rats during the dark phase of the light-dark cycle. Rats were administered 1% formalin and pain behaviour was assessed by a weighted score. Atipemazole, morphine, or vehicle was injected by subcutaneous injection 20 minutes prior to formalin injection into the plantar surface of the rat hind paw. The behavior was evaluated in 5 min intervals, and the severity of the response was determined.
The formalin test is a widely used tonic model of continuous pain resulting from formalin-induced tissue injury. It is a useful model, particularly for the screening of novel compounds, since it encompasses inflammatory, neurogenic, and central mechanisms of nociception. We used 1% formalin and assessed pain behavior by a weighted score. […]
Briefly, the nociceptive behavior was assessed as follows: (1) no favouring of the injected hind paw, (2) favouring, (3) complete elevation of the hind paw from the floor, and (4) licking or flinching. The behavior was evaluated in 5 min intervals, and the severity of the response was determined by the following formula: (0×the time spent in category 1, 1×the time spent in category 2, 2×the time spent in category 3, 3×the time spent in category 4).

[5] = tested on: rats; settings: morphine, cited from earlier work

Question: With `CC1c2ccccc2CN1CC1=NCCN1.O=C(O)/C=C\C(=O)O` (stereo not drawn) [BRL 44408, 2-[2H-(1-Methyl-1,3-dihydroisoindole)methyl]-4,5-dihydroimidazole maleate] as the molecule, how does the “antagonism of clonidine analgesia” value ([1]; BRL 44408 3.3 μg with clonidine 13.3 μg intrathecally) read?
Answer: did not antagonize clonidine

Question: And the “antagonism of clonidine analgesia” value ([1]; BRL 44408 16.5 μg with clonidine 13.3 μg intrathecally)?
Answer: antagonized clonidine analgesia

Question: And the “effect on morphine analgesia after a single administration” value ([2]; BRL 44408 1.65 ng with morphine 15 μg intrathecally once, relative to morphine alone, FIGS. 13A, 13B)?
Answer: significantly increased morphine analgesia

Question: What about the “effect on analgesic action of morphine in the acute tolerance study” value ([2]; BRL 44408 1.65 ng with morphine intrathecally, three injections at 90 minute intervals, FIGS. 14A, 14B) of the same molecule?
Answer: increased the acute analgesic action of morphine

Question: And the “analgesia after a single administration, antagonist alone” value ([3]; BRL 44408 1.65 ng intrathecally alone, single administration, relative to saline, FIGS. 13A, 13B)?
Answer: significant analgesia, relative to saline administration, after 60 minutes

Question: What about the “course and duration of analgesia after a single administration, antagonist alone” value ([3]; BRL 44408 1.65 ng intrathecally alone, single administration, FIGS. 13A, 13B) of the same molecule?
Answer: increased and persisted for the duration of the study (180 minutes)

Question: Which “effect on acute tolerance to the analgesic actions of spinal morphine” value ([2]; atipemazole 0.8 ng with morphine 15 μg intrathecally, three injections at 90 minute intervals, FIGS. 2A, 2B) does the source give for `CCC1(c2cnc[nH]2)Cc2ccccc2C1` [atipemazole] here?
Answer: prevented the decline of the analgesic effect of morphine

Question: And the “effect on acute morphine analgesia” value ([2]; atipemazole 0.8 or 0.08 ng with morphine 15 μg intrathecally, FIGS. 3A, 3B)?
Answer: potentiates opioid analgesia

Question: What about the “effect on acute tolerance to morphine (loss of response)” value ([2]; atipemazole 20 or 200 ng/kg sc with morphine 2.5 mg/kg sc, three injections at 90 minute intervals, FIGS. 11A, 11B) of the same molecule?
Answer: significantly reduced the loss of response to morphine alone

Question: What about the “analgesia in the formalin test (weighted pain score)” value [4] of the same molecule?
Answer: as effective as morphine

Question: What about the “analgesic response, antagonist alone, repeated administration” value (“analgesic response, antagonist alone” below) ([3]; atipemazole 0.8 ng intrathecally alone at 90 minute intervals, FIGS. 2A, 2B) of the same molecule?
Answer: incremental but weak analgesic response

Question: And the “analgesic effect, antagonist alone” value ([3]; atipemazole 0.8 ng intrathecally alone, FIGS. 3A, 3B)?
Answer: weak, albeit insignificant, analgesic effect

Question: What about the “antinociceptive effect in the tail flick test, dark phase” value ([3]; atipemazole 200 ng/kg sc, rats on reverse light/dark cycle, administered during the dark phase, tested every 30 minutes for 3 hours) of the same molecule?
Answer: did not produce a significant antinociceptive effect

Question: And the “analgesic response in the tail flick test, antagonist alone” value ([3]; atipemazole 20 and 200 ng/kg sc alone at 90 minute intervals, tail flick, FIG. 11A)?
Answer: delayed analgesic response

Question: With `c1ccc2c(c1)OCC(C1=NCCN1)O2` (stereo not drawn) [idazoxan] as the molecule, how does the “analgesic response, antagonist alone” value ([3]; idazoxan intrathecally alone, ultra-low dose, repeated) read?
Answer: no significant analgesic response

Question: With `CN1CC[C@]23c4c5ccc(O)c4O[C@H]2[C@@H](O)C=C[C@H]3[C@H]1C5` [morphine] as the molecule, how does the “analgesic response to repeated morphine” value ([2]; morphine 2.5 mg/kg sc alone, three injections at 90 minute intervals, both tests, FIGS. 11A, 11B) read?
Answer: rapid decay of the analgesic response

Question: And the “decline of the analgesic effect of morphine observed after the first injection” value ([2]; three successive intrathecal doses of morphine 15 μg at 90 minute intervals, end of the 240 minute test period, FIGS. 2A, 2B)?
Answer: ~80%

Question: What about the “ED50 dose during the dark phase” value ([5]; dark phase of light-dark cycle) of the same molecule?
Answer: 0.25 mg/kg

Question: And the “ED50 dose during the light phase” value ([5]; light phase of light-dark cycle)?
Answer: 5 mg/kg

Question: And the “potency in the dark phase compared to the light phase” value ([5]; nociceptive testing)?
Answer: 10 fold

Question: With `COC(=O)[C@@H]1[C@H]2C[C@H]3c4[nH]c5ccccc5c4CCN3C[C@@H]2CC[C@@H]1O` [yohimbine] as the molecule, how does the “analgesic response, antagonist alone” value ([3]; yohimbine 0.024 ng intrathecally alone at 90 minute intervals, FIGS. 6A, 6B) read?
Answer: no significant analgesic response
